{"source": "paper PMC11822212", "about": "“High-throughput screening identifies Aurora kinase B as a critical therapeutic target for Merkel cell carcinoma” (Nature Communications, 2025)", "key": {"HEK293T cells": {"test_system": "HEK293T cells", "test": "qHTS cell viability (CellTiter-Glo, 72 h; primary screen), control cell line", "format": "cell-based, human"}, "[1]": {"test_system": "VN-MCC cell lines (MCC13, MCC26, UISO)", "test": "qHTS cell viability, VN-MCC cell lines as a group (mean AUC, VN.MCC.avg)", "format": "cell-based, human"}, "WAGA cells (VP-MCC)": {"test_system": "WAGA cells (VP-MCC)", "test": "qHTS cell viability (CellTiter-Glo, 72 h; primary and follow-up small molecule screen)", "format": "cell-based, human"}, "MCC13 cells (VN-MCC)": {"test_system": "MCC13 cells (VN-MCC)", "test": "qHTS cell viability (CellTiter-Glo, 72 h; primary and follow-up small molecule screen)", "format": "cell-based, human"}, "[2]": {"test_system": "six MCC cell lines and four control cell lines", "test": "qHTS cell viability, all 10 cell lines screened", "format": "cell-based"}, "MCC26 cells (VN-MCC)": {"test_system": "MCC26 cells (VN-MCC)", "test": "qHTS cell viability (CellTiter-Glo, 72 h; primary and follow-up small molecule screen)", "format": "cell-based, human"}, "CRL-7250 cells": {"test_system": "CRL-7250 cells", "test": "qHTS cell viability (CellTiter-Glo, 72 h; primary screen), control cell line", "format": "cell-based"}, "UISO cells (VN-MCC)": {"test_system": "UISO cells (VN-MCC)", "test": "qHTS cell viability (CellTiter-Glo, 72 h; primary and follow-up small molecule screen)", "format": "cell-based, human"}, "NIH-3T3 cells": {"test_system": "NIH-3T3 cells", "test": "qHTS cell viability (CellTiter-Glo, 72 h; primary screen), control cell line", "format": "cell-based, mouse"}, "[3]": {"test_system": "MCC cell lines (WAGA, MKL-1, MKL-2, MCC13, MCC26, UISO)", "test": "qHTS cell viability, all six MCC cell lines as a group (mean AUC, MCC.avg)", "format": "cell-based, human"}, "HACAT cells": {"test_system": "HACAT cells", "test": "qHTS cell viability (CellTiter-Glo, 72 h; primary screen), control cell line", "format": "cell-based, human"}, "[4]": {"test_system": "control cell lines (HACAT, HEK293T, CRL-7250, NIH-3T3)", "test": "qHTS cell viability, control cell lines as a group (mean AUC, Control.avg)", "format": "cell-based"}, "MKL-2 cells (VP-MCC)": {"test_system": "MKL-2 cells (VP-MCC)", "test": "qHTS cell viability (CellTiter-Glo, 72 h; primary and follow-up small molecule screen)", "format": "cell-based, human"}, "MKL-1 cells (VP-MCC)": {"test_system": "MKL-1 cells (VP-MCC)", "test": "qHTS cell viability (CellTiter-Glo, 72 h; primary and follow-up small molecule screen)", "format": "cell-based, human"}, "[5]": {"test_system": "VP-MCC cell lines (WAGA, MKL-1, MKL-2)", "test": "qHTS cell viability, VP-MCC cell lines as a group (mean AUC, VP.MCC.avg)", "format": "cell-based, human"}, "[6]": {"details": "MIPE library, 11-point DRC, control cell line, sheet S2E"}, "[7]": {"details": "MIPE library, 11-point DRC, sheet S2E"}}, "note": "Where two headings read alike, the source gives them in different places."}
{"smiles": "CC[C@H]1C[C@@H]2C[C@H]3c4[nH]c5ccc(OC)cc5c4CCN(C2)[C@@H]13.Cl", "note": "[Ibogaine hydrochloride]", "values": [{"measurement": "HEK293T_AUC", "setting": "HEK293T cells", "value": 455.404}, {"measurement": "Control-VN-MCC", "setting": "[1]", "value": 54.6174}, {"measurement": "VN-MCC_Avg_AUC", "setting": "[1]", "value": 424.699}, {"measurement": "WAGA_AUC", "setting": "WAGA cells (VP-MCC)", "value": 409.341}, {"measurement": "MCC13_AUC", "setting": "MCC13 cells (VN-MCC)", "value": 435.55}, {"measurement": "Control-MCC", "setting": "[2]", "value": 51.6972}, {"measurement": "MCC26_AUC", "setting": "MCC26 cells (VN-MCC)", "value": 419.663}, {"measurement": "CRL7250_AUC", "setting": "CRL-7250 cells", "value": 490.013}, {"measurement": "UISO_AUC", "setting": "UISO cells (VN-MCC)", "value": 418.883}, {"measurement": "NIH3T3_AUC", "setting": "NIH-3T3 cells", "value": 484.099}, {"measurement": "MCC_Avg_AUC", "setting": "[3]", "value": 427.619}, {"measurement": "HACAT_AUC", "setting": "HACAT cells", "value": 487.75}, {"measurement": "Control_Avg_AUC", "setting": "[4]", "value": 479.316}, {"measurement": "MKL2_AUC", "setting": "MKL-2 cells (VP-MCC)", "value": 442.315}, {"measurement": "MKL1_AUC", "setting": "MKL-1 cells (VP-MCC)", "value": 439.962}, {"measurement": "Control-VP-MCC", "setting": "[5]", "value": 48.777}, {"measurement": "VP-MCC_Avg_AUC", "setting": "[5]", "value": 430.539}]}
{"smiles": "CC1=C(/C=C/C(C)=C/C=C/C(C)=C\\C(=O)O)C(C)(C)CCC1", "note": "[Isotretinoin]", "values": [{"measurement": "HEK293T_AUC", "setting": "HEK293T cells; [6]", "value": 469.58}, {"measurement": "HEK293T_AUC", "setting": "HEK293T cells; area under the dose-response curve, HEK293T control cells, AUC<450 = reduced viability", "value": 469.58}, {"measurement": "Control-VN-MCC", "setting": "[1]; MIPE library, Control AUC minus VN-MCC AUC (therapeutic window), sheet S2E", "value": 2.118}, {"measurement": "VN-MCC_Avg_AUC", "setting": "[1]; MIPE library, mean AUC of VN-MCC cell lines, sheet S2E", "value": 463.393}, {"measurement": "WAGA_AUC", "setting": "WAGA cells (VP-MCC); [7]", "value": 423.315}, {"measurement": "WAGA_AUC", "setting": "WAGA cells (VP-MCC); area under the dose-response curve, WAGA cells, AUC<450 = reduced viability", "value": 423.315}, {"measurement": "MCC13_AUC", "setting": "MCC13 cells (VN-MCC); [7]", "value": 457.493}, {"measurement": "MCC13_AUC", "setting": "MCC13 cells (VN-MCC); area under the dose-response curve, MCC13 cells, AUC<450 = reduced viability", "value": 457.493}, {"measurement": "Control-MCC", "setting": "[2]; MIPE library, Control AUC minus MCC AUC (therapeutic window), sheet S2E", "value": 26.3592}, {"measurement": "MCC26_AUC", "setting": "MCC26 cells (VN-MCC); [7]", "value": 479.481}, {"measurement": "MCC26_AUC", "setting": "MCC26 cells (VN-MCC); area under the dose-response curve, MCC26 cells, AUC<450 = reduced viability", "value": 479.481}, {"measurement": "CRL7250_AUC", "setting": "CRL-7250 cells; [6]", "value": 458.179}, {"measurement": "CRL7250_AUC", "setting": "CRL-7250 cells; area under the dose-response curve, CRL7250 control cells, AUC<450 = reduced viability", "value": 458.179}, {"measurement": "UISO_AUC", "setting": "UISO cells (VN-MCC); [7]", "value": 453.203}, {"measurement": "UISO_AUC", "setting": "UISO cells (VN-MCC); area under the dose-response curve, UISO cells, AUC<450 = reduced viability", "value": 453.203}, {"measurement": "NIH3T3_AUC", "setting": "NIH-3T3 cells; [6]", "value": 458.083}, {"measurement": "NIH3T3_AUC", "setting": "NIH-3T3 cells; area under the dose-response curve, NIH3T3 control cells, AUC<450 = reduced viability", "value": 458.083}, {"measurement": "MCC_Avg_AUC", "setting": "[3]; MIPE library, mean AUC of six MCC cell lines, sheet S2E", "value": 439.151}, {"measurement": "HACAT_AUC", "setting": "HACAT cells; [6]", "value": 476.199}, {"measurement": "HACAT_AUC", "setting": "HACAT cells; area under the dose-response curve, HACAT control cells, AUC<450 = reduced viability", "value": 476.199}, {"measurement": "Control_Avg_AUC", "setting": "[4]; MIPE library, mean AUC of control cell lines, sheet S2E", "value": 465.51}, {"measurement": "MKL2_AUC", "setting": "MKL-2 cells (VP-MCC); [7]", "value": 402.656}, {"measurement": "MKL2_AUC", "setting": "MKL-2 cells (VP-MCC); area under the dose-response curve, MKL-2 cells, AUC<450 = reduced viability", "value": 402.656}, {"measurement": "MKL1_AUC", "setting": "MKL-1 cells (VP-MCC); [7]", "value": 418.758}, {"measurement": "MKL1_AUC", "setting": "MKL-1 cells (VP-MCC); area under the dose-response curve, MKL-1 cells, AUC<450 = reduced viability", "value": 418.758}, {"measurement": "Control-VP-MCC", "setting": "[5]; MIPE library, Control AUC minus VP-MCC AUC (therapeutic window), sheet S2E", "value": 50.6007}, {"measurement": "VP-MCC_Avg_AUC", "setting": "[5]; MIPE library, mean AUC of VP-MCC cell lines, sheet S2E", "value": 414.91}]}
